In PubChem BioAssay AID248 (DTP/NCI, 2004):
Values joined by “and” are separate entries in the source; they are usually repeats but may differ in a detail not shown here. Identical values can stand only once. Toxic doses and inconclusive results are not listed. No stated cut-off is given here; in the data, active means T/C of 150% or more; inactive means T/C below 125%.

Tested on: L1210 leukemia ip in BDF1 mice, survival T/C
Experiment: NCI In Vivo Anticancer Drug Screen. Data for tumor model L1210 Leukemia (intraperitoneal) in B6D2F1 (BDF1) mice
Conditions: endpoint: mean survival time, higher = longer survival
In short: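 Tumor was transplanted into mice, which were then dosed with test compound or vehicle alone. Survival was recorded for each group, and the treated figure was expressed relative to the control figure.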

[1] = dose: 100.0 mg/kg/injection, schedule: Q04DX003 (ip), vehicle: saline with Tween-80
[2] = dose: 400.0 mg/kg/injection, schedule: Q04DX002 (ip), vehicle: saline with Tween-80
[3] = dose: 400.0 mg/kg/injection, schedule: Q04DX003 (ip), vehicle: saline with Tween-80
[4] = dose: 100.0 mg/kg/injection, schedule: Q01DX001 (ip), vehicle: saline
[5] = dose: 100.0 mg/kg/injection, schedule: Q01DX009 (ip), vehicle: saline
[6] = dose: 200.0 mg/kg/injection, schedule: Q01DX001 (ip), vehicle: saline
[7] = dose: 400.0 mg/kg/injection, schedule: Q01DX001 (ip), vehicle: saline
[8] = dose: 100.0 mg/kg/injection, schedule: Q01DX009 (ip), vehicle: saline with Tween-80
[9] = dose: 200.0 mg/kg/injection, schedule: Q01DX009 (ip), vehicle: saline with Tween-80
[10] = dose: 200.0 mg/kg/injection, schedule: Q04DX003 (ip), vehicle: saline with Tween-80
[11] = dose: 400.0 mg/kg/injection, schedule: Q01DX009 (ip), vehicle: saline with Tween-80
[12] = dose: 100.0 mg/kg/injection, schedule: Q01DX009 (ip), vehicle: Klucel (hydroxypropylcellulose) (HPC)
[13] = dose: 100.0 mg/kg/injection, schedule: Q04DX003 (ip), vehicle: Klucel (hydroxypropylcellulose) (HPC)
[14] = dose: 200.0 mg/kg/injection, schedule: Q01DX009 (ip), vehicle: Klucel (hydroxypropylcellulose) (HPC)
[15] = dose: 200.0 mg/kg/injection, schedule: Q04DX003 (ip), vehicle: Klucel (hydroxypropylcellulose) (HPC)
[16] = dose: 400.0 mg/kg/injection, schedule: Q01DX009 (ip), vehicle: Klucel (hydroxypropylcellulose) (HPC)
[17] = dose: 400.0 mg/kg/injection, schedule: Q04DX003 (ip), vehicle: Klucel (hydroxypropylcellulose) (HPC)
[18] = dose: 100.0 mg/kg/injection, schedule: Q04DX002 (ip), vehicle: Klucel (hydroxypropylcellulose) (HPC)
[19] = dose: 200.0 mg/kg/injection, schedule: Q04DX002 (ip), vehicle: Klucel (hydroxypropylcellulose) (HPC)
[20] = dose: 400.0 mg/kg/injection, schedule: Q04DX002 (ip), vehicle: Klucel (hydroxypropylcellulose) (HPC)

Measured: T/C

CCCCCCCCCCCCCCCCCCOC(=O)C(C(C)=O)C(c1cccc([N+](=O)[O-])c1)C(C(C)=O)C(=O)O (stereo not drawn)
inactive: dose: 25.6 mg/kg/injection, schedule: Q04DX002 (ip), vehicle: saline with Tween-80 87 % of control | dose: 64.0 mg/kg/injection, schedule: Q04DX002 (ip), vehicle: saline with Tween-80 95 % of control | [1] 90 % of control | dose: 160.0 mg/kg/injection, schedule: Q04DX002 (ip), vehicle: saline with Tween-80 95 % of control | [2] 91 % of control | [3] 92 % of control

C/C(=N/N(C)C)c1ccc(C)cc1
inactive: [4] 93 % of control | [5] 91 % of control | [6] 97 % of control | [7] 105 % of control

Cc1c(F)cc(I)cc1[N+](=O)[O-]
inactive: dose: 100.0 mg/kg/injection, schedule: Q01DX001 (ip), vehicle: acetone 100 % of control | [8] 103 % of control | [1] 100 % of control | dose: 200.0 mg/kg/injection, schedule: Q01DX001 (ip), vehicle: acetone 95 % of control | [9] 105 % of control | [10] 100 % of control | dose: 400.0 mg/kg/injection, schedule: Q01DX001 (ip), vehicle: acetone 97 % of control | [11] 103 % of control | [3] 93 % of control

CC(C#N)(/C=C/c1ccccc1)Nc1ccccc1N (stereo not drawn)
inactive: [12] 95 % of control | [13] 94 % of control | [14] 95 % of control | [15] 98 % of control | [16] 96 % of control | [17] 93 % of control

O=C(Nc1ccc(S(=O)(=O)O)cc1)c1ccc([N+](=O)[O-])cc1
inactive: dose: 50.0 mg/kg/injection, schedule: Q01DX001 (ip), vehicle: saline 92 % of control | [4] 103 % of control | [5] 95 % of control | dose: 100.0 mg/kg/injection, schedule: Q04DX003 (ip), vehicle: saline 100 % of control | [6] 97 % of control | dose: 200.0 mg/kg/injection, schedule: Q01DX009 (ip), vehicle: saline 102 % of control | dose: 200.0 mg/kg/injection, schedule: Q04DX003 (ip), vehicle: saline 91 % of control | [7] 97 % of control | dose: 400.0 mg/kg/injection, schedule: Q01DX009 (ip), vehicle: saline 100 % of control | dose: 400.0 mg/kg/injection, schedule: Q04DX003 (ip), vehicle: saline 100 % of control

CCOC(=O)/C(Cc1cc[n+]([O-])c2ccccc12)=N/O
inactive: [12] 91 % of control | [13] 92 % of control | [14] 97 % of control | [15] 90 % of control | [16] 100 % of control | [17] 100 % of control

COC(=O)CCS
inactive: dose: 10.0 mg/kg/injection, schedule: Q01DX001 (ip), vehicle: saline 101 % of control | dose: 20.0 mg/kg/injection, schedule: Q01DX001 (ip), vehicle: saline 101 % of control | dose: 40.0 mg/kg/injection, schedule: Q01DX001 (ip), vehicle: saline 96 % of control

CC(C)(C)NC(=O)Cc1ccccc1
inactive: dose: 50.0 mg/kg/injection, schedule: Q04DX003 (ip), vehicle: saline with Tween-80 97 % of control | [1] 98 % of control | [10] 103 % of control

CC(=O)c1cccc(NC(=O)c2ccco2)c1
inactive: dose: 50.0 mg/kg/injection, schedule: Q01DX009 (ip), vehicle: Klucel (hydroxypropylcellulose) (HPC) 96 % of control | [12] 93 % of control | [14] 93 % of control

NC(=S)NNC1CCCCC1
inactive: dose: 22.0 mg/kg/injection, schedule: Q01DX Z (ip), vehicle: methylcellulose (MC) 94 % of control | dose: 33.0 mg/kg/injection, schedule: Q01DX Z (ip), vehicle: methylcellulose (MC) 117 % of control | dose: 50.0 mg/kg/injection, schedule: Q01DX Z (ip), vehicle: methylcellulose (MC) 93 % of control

NP(=S)(Oc1ccc(Cl)cc1)Oc1ccc(Cl)cc1
inactive: dose: 6.25 mg/kg/injection, schedule: Q01DX009 (ip), vehicle: gum acacia 103 % of control | dose: 12.5 mg/kg/injection, schedule: Q01DX009 (ip), vehicle: gum acacia 110 % of control | dose: 12.5 mg/kg/injection, schedule: Q04DX002 (ip), vehicle: gum acacia 87 % of control | dose: 25.0 mg/kg/injection, schedule: Q01DX009 (ip), vehicle: gum acacia 100 % of control | dose: 25.0 mg/kg/injection, schedule: Q04DX002 (ip), vehicle: gum acacia 87 % of control | dose: 100.0 mg/kg/injection, schedule: Q04DX002 (ip), vehicle: saline 93 % of control | dose: 200.0 mg/kg/injection, schedule: Q04DX002 (ip), vehicle: saline 101 % of control | dose: 400.0 mg/kg/injection, schedule: Q04DX002 (ip), vehicle: saline 96 % of control

COc1ccc(NC(=O)c2ccc(Cl)cc2Cl)c(OC)c1
inactive: [18] 102 % of control | [19] 97 % of control | [20] 102 % of control

c1cc2c(cc1-c1nnc(-c3ccc4c(c3)OCO4)nn1)OCO2
inactive: dose: 400.0 mg/kg/injection, schedule: Q01DX001 (ip), vehicle: saline with Tween-80 86 % of control

C[C@]12CC[C@H]3[C@@H](CCC4=CC(=O)CC[C@@]43C(=O)F)[C@@H]1CC[C@@H]2O
inactive: dose: 100.0 mg/kg/injection, schedule: Q01DX001 (sc), vehicle: steriod suspending solution 97 % of control | dose: 200.0 mg/kg/injection, schedule: Q01DX001 (sc), vehicle: steriod suspending solution 100 % of control | dose: 400.0 mg/kg/injection, schedule: Q01DX001 (sc), vehicle: steriod suspending solution 97 % of control

O=S1(=O)CC(c2ccccc2)(c2ccccc2)N1
inactive: [18] 108 % of control | [19] 112 % of control | [20] 96 % of control

C=CCCCCCCCCC(=O)NCc1cccnc1
inactive: [8] 96 % of control | [9] 94 % of control | [11] 102 % of control

O=C1C(c2ccccc2)=Nc2ccccc21
inactive: dose: 100.0 mg/kg/injection, schedule: Q04DX002 (ip), vehicle: saline with Tween-80 88 % of control | dose: 200.0 mg/kg/injection, schedule: Q04DX002 (ip), vehicle: saline with Tween-80 88 % of control | [2] 90 % of control

N#CCCn1cnc2c(=S)nc[nH]c21
inactive: dose: 2.0 mg/kg/injection, schedule: Q01DX Z (ip), vehicle: other 97 % of control | dose: 4.0 mg/kg/injection, schedule: Q01DX Z (ip), vehicle: other 97 % of control and 100 % of control | dose: 8.0 mg/kg/injection, schedule: Q01DX Z (ip), vehicle: other 100 % of control and 106 % of control | dose: 16.0 mg/kg/injection, schedule: Q01DX Z (ip), vehicle: other 101 % of control and 102 % of control | dose: 32.0 mg/kg/injection, schedule: Q01DX Z (ip), vehicle: other 96 % of control and 98 % of control

C1C2C3OC3C1C1C2C2C3CC(C4OC34)C12 (stereo not drawn)
inactive: [8] 94 % of control | [1] 100 % of control | [9] 94 % of control | [10] 101 % of control | [11] 94 % of control | [3] 97 % of control
